Results as given in US20230391758A1, “MODIFIED BENZOFURAN-CARBOXAMIDES AS GLUCOSYLCERAMIDE SYNTHASE INHIBITORS” (MERCK SHARP & DOHME CORP., priority 2020, published 2023).

molecular target: GCS enzyme (glucosylceramide synthase) contained within Golgi preparations isolated from human A375 malignant melanoma skin cells (Homo sapiens (Human), UniProt Q16739); assay: UDP-Glo glucosylceramide synthase biochemical assay; conditions: 1.5 μg crude golgi preparation from A375 cells; C6 ceramide and UDP-glucose at 2×Km; 20 h incubation at room temperature; UDP detected by luminescence
Description: UDP-Glo™ Glucosylceramide Synthase Biochemical Assay
A UDP-Glo™ glucosylceramide synthase biochemical assay was utilized to evaluate the effect of test compounds on the activity of endogenous levels of GCS enzyme contained within Golgi preparations isolated from human A375 malignant melanoma skin cells. The UDP-Glo™ glucosylceramide synthase assay uses UDP-Glucose as a nucleotide-glycosyl donor and ceramide as substrate acceptor molecules. In the reaction, glucosylceramide synthase (GCS) transfers glucose from UDP-Glucose to ceramide. Glucosylceramide and UDP are released as products.
Using Promega's UDP-Glo™ Glycosyltransferase assay kit (Promega Corporation, Madison, WI, USA (Promega)), GCS activity was indirectly measured by detecting the amount of UDP produced. An aliquot of GCS enzyme (1.5 μg crude golgi preparation, total protein) and titrated test compound were aliquoted to each well and incubated for 30 minutes at room temperature. Substrate mixture was prepared by mixing C6 ceramide (Avanti Polar Lipids, Alabaster, AL USA (Avanti)) (micelles prepared at 0.6 mM in 0.6 mM DOPC) and UDP-glucose (20 μ.M; Promega), at concentrations equivalent to 2×Km, in assay buffer (25 mM HEPES (pH 7.5), 50 mM KCl, 5 mM MgCl2). An equivalent volume of substrate mixture was then added to each well. Following a 20 h incubation at room temperature to allow for GCS turnover of substrate, an equal volume of UDP detection reagent (Promega) was added to each well and incubated for an additional 75 minutes at room temperature to simultaneously convert the accumulated UDP product into ATP and generate light in a luciferase reaction. The generated light was detected using a luminometer. […] luminescence values (RLUs) were normalized to mean “min” and “max” effects, as determined on each plate. “Min” was defined as the mean of the values of the wells treated with vehicle (DMSO) and which represent 0% inhibition; “max” was defined as the mean of the values of the wells treated with a reference inhibitor and which represent the 100% effect. Values for % Emax and EC50 were determined by best-fitting the normalized data to a curve in Activity Base along a four-parameter logistic nonlinear regression (4PL) model (based on the Levenberg-Marquardt algorithm and defined by the equation below): […]
where: n is 4PMin (bottom of the curve); m is 4PMax (top of the curve); i is IP (inflection point of curve); and p is slope. See Levenberg, K., “A Method for the Solution of Certain Problems in Least Squares”, Quart. Appl. Math. 2, (1944), pp 164-168 and Marquardt, D., “An Algorithm for Least Squares Estimation on Nonlinear Parameters”, SIAM J. Appl. Math. 11, (1963) pp 431-441.

GCS enzyme (glucosylceramide synthase) contained within Golgi preparations isolated from human A375 malignant melanoma skin cells, sequence (Q16739 whole entry): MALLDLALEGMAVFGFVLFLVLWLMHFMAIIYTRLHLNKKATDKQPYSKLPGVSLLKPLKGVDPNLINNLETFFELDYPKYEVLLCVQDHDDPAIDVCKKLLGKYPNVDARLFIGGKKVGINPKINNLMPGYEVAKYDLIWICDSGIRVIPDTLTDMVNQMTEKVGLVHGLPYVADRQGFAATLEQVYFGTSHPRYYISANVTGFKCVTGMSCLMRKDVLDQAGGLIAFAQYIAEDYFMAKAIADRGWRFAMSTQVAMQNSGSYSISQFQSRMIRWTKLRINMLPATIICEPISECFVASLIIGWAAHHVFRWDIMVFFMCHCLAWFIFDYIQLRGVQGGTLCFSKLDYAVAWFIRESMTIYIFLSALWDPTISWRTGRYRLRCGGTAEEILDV

Row | SMILES | EC50
1 | Cc1nn(C)c(C)c1-c1cccc2cc(C(=O)NC3CN4CCC3CC4)oc12 (racemic) [Compound 37, (R and S)-N-(quinuclidin-3-yl)-7-(1,3,5-trimethyl-1H-pyrazol-4-yl)benzofuran-2-carboxamide] | 2.4 nM
2 | CC(C)Oc1ccc(C#N)cc1-c1cc(F)cc2cc(C(=O)N[C@H]3C[C@@H](O)C3)oc12 [Compound 26, Cis-7-(5-cyano-2-isopropoxy-phenyl)-5-fluoro-N-(3-hydroxycyclobutyl) benzofuran-2-carboxamide] | 0.1 nM
3 | CCCOc1ccccc1-c1cccc2cc(C(=O)NC3CN4CCC3CC4)oc12 (racemic) [Compound 23, (R and S)-7-(2-propoxyphenyl)-N-quinuclidin-3-yl-benzofuran-2-carboxamide] | 0.044 nM
4 | N#Cc1ccc(OC(F)F)c(-c2cccc3cc(C(=O)NC45CCC(O)(CC4)C5)oc23)c1 [Compound 4, 7-[5-cyano-2-(difluoromethoxy)phenyl]-N-(4-hydroxynorbornan-1-yl)benzofuran-2-carboxamide] | 0.1 nM

More lines, now with the values ahead:

Row | EC50 | SMILES
5 | 94 nM | COCCOc1ccccc1-c1cccc2cc(C(=O)Nc3cccnc3)oc12 [Compound 35, 7-[2-(2-methoxyethoxy)phenyl]-N-(3-pyridyl)benzofuran-2-carboxamide]
6 | 0.89 nM | O=C(NC12CCC(CO)(CC1)CC2)c1cc2cc(F)cc(-c3ccccc3OCC(F)(F)F)c2o1 [Compound 17, 5-fluoro-N-[4-(hydroxymethyl)-1-bicyclo[2.2.2]octanyl]-7-[2-(2,2,2-trifluoroethoxy)phenyl] benzofuran-2-carboxamide]
7 | 5 nM | N#Cc1ccc(F)c(-c2cccc3cc(C(=O)N[C@@H]4CC[C@H](O)C4)oc23)c1 [Compound 32, 7-(5-cyano-2-fluoro-phenyl)-N-[(1R,3S)-3-hydroxycyclopentyl] benzofuran-2-carboxamide]
8 | 6.5 nM | CCOc1ccc(F)cc1-c1cccc2cc(C(=O)N[C@@H]3CC[C@H](O)C3)oc12 [Compound 33, 7-(2-ethoxy-5-fluoro-phenyl)-N-[(1R,3S)-3-hydroxycyclopentyl] benzofuran-2-carboxamide]
9 | 0.047 nM | N#Cc1ccc(Cl)c(-c2cccc3cc(C(=O)N[C@@H]4CC[C@H](O)C4)oc23)c1 [Compound 25, 7-(2-chloro-5-cyano-phenyl)-N-[(1R,3S)-3-hydroxycyclopentyl] benzofuran-2-carboxamide]
10 | 1.7 nM | O=C(N[C@@H]1CNCC[C@H]1F)c1cc2cccc(-c3ccccc3OCC(F)(F)F)c2o1 (relative stereo) [Compound 15, N-(trans-4-fluoro-3-piperidyl)-7-[2-(2,2,2-trifluoroethoxy)phenyl] benzofuran-2-carboxamide]
